The assay concerns 324938-238-R-J1-PDC complex spheroid growth, % test/control. Nature of the assay: Anticancer human tumor 324938-238-R-J1-PDC patient-derived bladder carcinoma cell line growth inhibition [AhR]. Particulars: for viability, T/C: stronger effect = lower value. The text has this:
Multicellular complex tumor spheroid response to aryl hydrocarbon receptor antagonists in combination with a variety of drugs and investigational agents in selected tumor cell lines
The current study was undertaken to assess response to aryl hydrocarbon receptor antagonists in combination with standard-of-care drugs and investigational agents in solid tumor complex spheroid models. Complex spheroids include a stromal component modeled by human endothelial cells (HUVEC) and fibroblasts modeled by human mesenchymal stem cells (MSCs). The concentration ranges selected for each drug and investigational agent were based upon clinically achievable concentrations if the clinical Cmax of the agent was known.
Compounds. The drugs and investigational agents: BAY 2416964 (NSC825713), GNF351 (NSC835774), CH-223191 (NSC835775), CPI-455 (NSC825282), aza-TdCyd (NSC777586), decitabine (NSC127716), belinostat (NSC758774), entinostat (NSC756642), pevonedistat (NSC761192), tazemetostat (NSC777109), talazoparib (NSC765396), olaparib (NSC753686), selinexor (NSC780203), nedisertib (M3814, NSC802822), bortezomib (NSC756655), venetoclax (NSC766270), doxorubicin (NSC123127), elimusertib (BAY189344, NSC800525), ceralasertib (AZD6738, NSC777638), TAK-243 (NSC785004), alisertib (NSC759677), etoposide (NSC141540), topotecan (NSC609699), eribulin (NSC707389), gemcitabine (NSC613327), carboplatin (NSC241240), cisplatin (NSC119875), and SN-38 (NSC673596) were obtained from the National Cancer Institute (NCI) Developmental Therapeutics Program Chemical Repository (32). The FDA-approved anticancer drug set is available from the Developmental Therapeutics Program at https://dtp.cancer.gov/organization/dscb/obtaining/available plates.htm. […] The stock solutions were prepared in dimethyl sulfoxide (DMSO, Sigma-Aldrich, St. Louis, MO, cat. D2650), except for the platinum compounds which were prepared in saline (Quality Biological, Gaithersburg, MD, cat. 114-055-101), at 800-fold the tested concentration and stored at -70 degrees C prior to their use. All drugs and investigational agents were tested over a range starting from a high concentration at or near the clinical Cmax and decreasing in half-log increments. If the clinical Cmax for an agent had not been determined, the highest concentration tested was 10 microM (Table 1).
Cell Culture. All cells were maintained in an incubator at 37 degrees C and 5% CO2 with 95% humidity. The PDC lines were cultured according to standard operating procedures established by the NCI PDMR (https://pdmr.cancer.gov). Briefly, all PDCs were thawed and cultured in Matrigel-coated flasks prepared with a working solution of 1X Ham's F-12 nutrient mix, without supplementation (Invitrogen, Waltham, MA, cat. 11765054), 100 U/mL penicillin-streptomycin (Invitrogen, cat. 15140122), and 2.5% Matrigel (Corning Inc., Corning, NY, cat. 354248) for the first three passages. All PDCs were cultured in complete DMEM/F-12 media containing advanced DMEM/F-12 (Invitrogen, cat. 12634028), 4.9% defined fetal bovine serum, heat inactivated (HyClone Laboratories Inc., Logan, UT, cat. SH30070.03HI), 389 ng/mL hydrocortisone (Sigma-Aldrich, cat. H4001), 9.7 ng/mL human EGF recombinant protein (Invitrogen, cat. PHG0313), 23.4 microg/mL adenine (Sigma-Aldrich, cat. A2786), 97.3 U/mL penicillin-streptomycin (Invitrogen, cat. 15140122), 1.9 mM L-glutamine (Invitrogen, cat. 25030081), and 9.7 microM Y-27632 dihydrochloride (Tocris Bioscience, Bristol, United Kingdom, cat. 1254). The PDCs were cultured in complete DMEM/F12 media without 10 microM Y-27632 dihydrochloride for at least two passages prior to the screen. The established cell lines NCI-H1341 and […] were cultured in DMEM/F-12, HEPES (Invitrogen, cat. 11330032), 5% defined fetal bovine serum (HyClone Laboratories Inc., cat. SH30070.03), ITS premix universal culture supplement [insulin (5 microg/mL), transferrin (5 microg/mL), and selenious acid (5 ng/mL)] […]

Each structure is given as a SMILES string. Where “and” joins values, the source holds several entries; their conditions need not be identical. Equal values may be shown once.

Here are results for five molecules from PubChem BioAssay AID1918995 (Molecular Pharmacology Branch, DTP, NCI, 2023).
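Further: spheroids exposed to agents for seven days before viability read.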

In general, viability, T/C refers to the result in the treated group divided by that in the control group, in per cent. In general, IC50 refers to the concentration that inhibits the measured activity by half. `CC(C)c1c(-c2ccccc2)nc2c(C#N)c[nH]n2c1=O`: the viability, T/C runs as follows: (compound 0.0316 µM) 136% and 101% and 102%; (compound 0.1 µM) 74.3% and 108% and 99%; (compound 0.316 µM) 70.3% and 96.4% and 99.4%; (compound 1 µM) 80.5% and 97.2% and 86.3%; (compound 3.16 µM) 181% and 93.4% and 97.5%; (compound 10 µM) 99.3% and 77.3% and 90.8%. The half-maximal inhibitory concentration (IC50) (curve of compound) is greater than 10 µM.
Regarding `CC(CO)NC(=O)c1cc(-c2ccc(Cl)cc2)nn(-c2cnn(C)c2)c1=O` (stereo unspecified), the viability, T/C is 91% [middle of 21 runs] (compound 0.316 µM), 82.4% [middle of 21 runs] (compound 1 µM) and 68.8% [middle of 19 runs] (compound 10 µM). Further, the IC50 (compound alone, run of 07/12/2022) was greater than 10 µM.
Take `COc1ccc([C@@H](O)c2cc(-c3ncnc4cc(N5CCOCC5)ccc34)c(F)cc2Cl)nn1`: the viability, T/C by setting is: (compound 0.0316 µM) 109% (2×) and 99.4%; (compound 0.1 µM) 115% and 112% and 109%; (compound 0.316 µM) 59.1% and 92.5% and 94%; (compound 1 µM) 82.9% and 89.8% and 84%; (compound 3.16 µM) 59.8% and 80.3% and 73.2%; (compound 10 µM) 33.9% and 66% and 60.1%. Moreover, the IC50 (curve of compound) is 4.38 µM and > 10 µM.
On to `Cc1ccccc1N=Nc1ccc(NC(=O)c2ccnn2C)c(C)c1`, for which, where the note is “compound 10 µM”, the viability, T/C is 79.2% [middle of 20 runs]. In addition, the IC50 (compound alone, run of 07/26/2022) is greater than 10 µM.
With `Cc1cncc(-c2nc(NCCc3c[nH]c4ccccc34)c3ncn(C(C)C)c3n2)c1`, the IC50 (compound alone, run of 07/18/2022) was 5.31 µM [middle of 23 runs].
